In US20140113898A1, “BISARYLSULFONE AND DIALKYLARYLSULFONE COMPOUNDS AS CALCIUM CHANNEL BLOCKERS” (Zalicus Pharmaceuticals Ltd., priority 2010, published 2014):

target: T1, CaV2.2 (Homo sapiens, UniProt Q00975); experiment: High-throughput CaV2.2/Kir2.3 FLIPR fluorescent assay; type: cell-based; conditions: FLIPR data CaV2.2 (nM), Table 5; Fluo-4 FLIPR; closed or inactivated state not stated
T1 construct: expressed in transfected cells; host or cells: unnamed doxycycline-inducible cell line
Protocol: Cells were plated in 384-well, clear-bottom, black-walled, poly-D-lysine coated plates (Becton Dickinson, Franklin Lake, N.J.) 2 days prior to use in the FLIPR assay. 100 μL of cells (1.4×10^6 cell/mL) containing doxycyline (Sigma-Aldrich, 1.5 μg/mL; to induce channel expression) were added to each well using a Multidrop (Thermo Scientific, Waltham, Mass.) and were maintained in 5% CO2 incubator at 37° C. On the morning of the assay, cells were transferred to a 5% CO2 incubator at 29° C.
Cells were washed with a wash buffer containing (in mM): 118 NaCl, 18.4 HEPES, 11.7 D-glucose, 2 CaCl2, 0.5 MgSO4, 4.7 KCl, 1.2 KH2PO4, pH adjusted to 7.2 with NaOH. 4.4 μM of the fluorescent indicator dye, Fluo-4 (Invitrogen), prepared in pluronic acid (Sigma-Aldrich), was loaded into the wells and incubated for 45 minutes at 29° C. in 5% CO2. Cells were then rinsed with either a 2 mM KCl closed-state buffer (in mM: 138.5 NaCl, 10 HEPES, 10 D-glucose, 1 CaCl2, and 2 KCl, with the pH adjusted to 7.4 with NaOH) when performing the closed-state assay or 12.5 mM KCl inactivated-state buffer (in mM: 128 NaCl, 10 HEPES, 10 D-glucose, 1 CaCl2, and 12.5 mM KCl, with the pH adjusted to 7.4 with NaOH) when performing the inactivated-state assay.
Calcium entry was evoked with an addition of 130 mM KCl stimulation buffer (in mM: 10.5 NaCl, 10 HEPES, 10 D-glucose, 1 CaCl2, and 130 KCl, with the pH adjusted to 7.4 with NaOH) for both the closed-state or inactivated-state assay. A change in the Fluo-4 fluorescence signal was assessed using FLIPR^TETRA™ instrument (Molecular Devices, Sunnyvale, Calif.) for 3 minutes following the elevation of extracellular KCl using an illumination wavelength of 470-495 nm with emissions recorded at 515-575 nm.
Concentration-dependent response curves were obtained by comparing the fluorescence signal in the presence of compound and fitted with a logistic function (1) to obtain the concentration that inhibited 50% (IC50) of the RLU signal using OriginPro v.7.5 software (OriginLab, Northampton, Mass.).
To assess the quality of the FLIPR assays the Z-factor (2) was used to quantify the suitability of the assay conditions using the following equation: […]
Data are expressed as mean and standard deviation (SD).

T1 sequence (Q00975 whole entry): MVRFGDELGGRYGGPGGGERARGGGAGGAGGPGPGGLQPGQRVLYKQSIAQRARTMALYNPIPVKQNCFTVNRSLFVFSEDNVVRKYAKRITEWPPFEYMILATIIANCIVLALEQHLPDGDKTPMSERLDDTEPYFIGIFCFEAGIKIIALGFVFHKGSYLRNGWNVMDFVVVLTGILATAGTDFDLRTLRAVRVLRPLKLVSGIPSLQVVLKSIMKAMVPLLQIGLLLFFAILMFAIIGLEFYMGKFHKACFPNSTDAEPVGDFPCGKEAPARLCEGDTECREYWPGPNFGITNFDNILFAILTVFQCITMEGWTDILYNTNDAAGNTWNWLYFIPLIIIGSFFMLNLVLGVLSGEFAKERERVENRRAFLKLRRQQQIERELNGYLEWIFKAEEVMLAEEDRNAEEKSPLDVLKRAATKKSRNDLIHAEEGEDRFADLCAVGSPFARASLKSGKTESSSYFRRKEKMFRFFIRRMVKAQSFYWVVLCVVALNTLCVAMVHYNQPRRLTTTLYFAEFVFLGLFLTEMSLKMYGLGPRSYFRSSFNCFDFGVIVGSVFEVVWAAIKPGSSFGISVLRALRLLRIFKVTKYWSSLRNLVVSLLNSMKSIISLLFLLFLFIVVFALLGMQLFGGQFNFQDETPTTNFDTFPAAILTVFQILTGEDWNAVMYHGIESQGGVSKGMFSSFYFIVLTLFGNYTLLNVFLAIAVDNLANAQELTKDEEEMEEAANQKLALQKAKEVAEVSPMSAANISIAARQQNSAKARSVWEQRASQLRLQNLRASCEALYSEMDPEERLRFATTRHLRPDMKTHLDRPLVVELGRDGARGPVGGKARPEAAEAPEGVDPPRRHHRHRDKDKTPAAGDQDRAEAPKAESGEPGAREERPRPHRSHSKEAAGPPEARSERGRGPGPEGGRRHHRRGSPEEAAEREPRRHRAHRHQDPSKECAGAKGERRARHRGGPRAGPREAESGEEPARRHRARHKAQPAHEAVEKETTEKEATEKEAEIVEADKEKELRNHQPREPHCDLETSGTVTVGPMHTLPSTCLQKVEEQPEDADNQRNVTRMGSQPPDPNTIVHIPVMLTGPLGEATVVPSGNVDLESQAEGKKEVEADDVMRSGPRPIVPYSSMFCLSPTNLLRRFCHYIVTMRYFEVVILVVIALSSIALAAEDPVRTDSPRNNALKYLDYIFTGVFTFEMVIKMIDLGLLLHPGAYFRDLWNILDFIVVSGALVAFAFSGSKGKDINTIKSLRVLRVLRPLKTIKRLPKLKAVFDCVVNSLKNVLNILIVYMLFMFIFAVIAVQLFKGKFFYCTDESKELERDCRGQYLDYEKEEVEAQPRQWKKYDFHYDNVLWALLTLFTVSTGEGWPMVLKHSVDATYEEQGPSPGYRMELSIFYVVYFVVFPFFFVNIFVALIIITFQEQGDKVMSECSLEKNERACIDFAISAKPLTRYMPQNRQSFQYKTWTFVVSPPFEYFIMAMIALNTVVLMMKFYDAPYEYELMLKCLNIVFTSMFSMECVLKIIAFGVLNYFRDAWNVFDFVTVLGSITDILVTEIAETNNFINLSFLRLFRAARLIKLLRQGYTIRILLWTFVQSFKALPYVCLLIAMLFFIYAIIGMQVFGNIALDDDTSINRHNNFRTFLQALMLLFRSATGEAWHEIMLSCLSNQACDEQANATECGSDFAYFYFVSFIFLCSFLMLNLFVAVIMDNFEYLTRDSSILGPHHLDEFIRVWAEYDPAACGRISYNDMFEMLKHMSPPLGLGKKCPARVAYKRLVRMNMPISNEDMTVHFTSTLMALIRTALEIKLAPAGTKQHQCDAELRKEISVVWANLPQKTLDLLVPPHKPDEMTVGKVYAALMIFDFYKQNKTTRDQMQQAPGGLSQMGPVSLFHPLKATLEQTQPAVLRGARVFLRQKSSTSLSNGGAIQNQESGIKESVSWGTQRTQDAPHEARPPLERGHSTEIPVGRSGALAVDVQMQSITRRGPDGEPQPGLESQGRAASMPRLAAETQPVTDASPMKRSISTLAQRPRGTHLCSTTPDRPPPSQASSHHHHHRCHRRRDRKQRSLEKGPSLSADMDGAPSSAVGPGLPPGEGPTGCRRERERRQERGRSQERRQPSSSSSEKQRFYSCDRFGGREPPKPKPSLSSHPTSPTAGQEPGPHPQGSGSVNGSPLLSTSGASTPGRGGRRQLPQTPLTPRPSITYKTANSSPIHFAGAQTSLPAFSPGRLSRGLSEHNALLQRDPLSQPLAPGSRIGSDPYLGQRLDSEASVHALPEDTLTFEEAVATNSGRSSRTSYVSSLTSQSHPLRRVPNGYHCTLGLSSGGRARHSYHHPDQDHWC
T1 sequence (P54284 whole entry partner): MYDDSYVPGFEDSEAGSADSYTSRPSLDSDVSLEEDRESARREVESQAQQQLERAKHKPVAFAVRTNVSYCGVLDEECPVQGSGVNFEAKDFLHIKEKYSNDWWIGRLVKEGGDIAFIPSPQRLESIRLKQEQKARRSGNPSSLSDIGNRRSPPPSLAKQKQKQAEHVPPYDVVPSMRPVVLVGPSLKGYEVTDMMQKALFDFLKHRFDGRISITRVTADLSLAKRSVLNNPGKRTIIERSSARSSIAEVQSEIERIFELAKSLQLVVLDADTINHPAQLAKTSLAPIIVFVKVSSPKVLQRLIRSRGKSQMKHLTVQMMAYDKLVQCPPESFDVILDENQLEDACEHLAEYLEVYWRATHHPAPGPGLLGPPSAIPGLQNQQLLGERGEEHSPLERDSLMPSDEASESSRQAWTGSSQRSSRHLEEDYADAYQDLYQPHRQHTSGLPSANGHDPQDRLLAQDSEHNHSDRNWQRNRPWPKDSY
T1 sequence (P54289 25-946 partner limits assumed): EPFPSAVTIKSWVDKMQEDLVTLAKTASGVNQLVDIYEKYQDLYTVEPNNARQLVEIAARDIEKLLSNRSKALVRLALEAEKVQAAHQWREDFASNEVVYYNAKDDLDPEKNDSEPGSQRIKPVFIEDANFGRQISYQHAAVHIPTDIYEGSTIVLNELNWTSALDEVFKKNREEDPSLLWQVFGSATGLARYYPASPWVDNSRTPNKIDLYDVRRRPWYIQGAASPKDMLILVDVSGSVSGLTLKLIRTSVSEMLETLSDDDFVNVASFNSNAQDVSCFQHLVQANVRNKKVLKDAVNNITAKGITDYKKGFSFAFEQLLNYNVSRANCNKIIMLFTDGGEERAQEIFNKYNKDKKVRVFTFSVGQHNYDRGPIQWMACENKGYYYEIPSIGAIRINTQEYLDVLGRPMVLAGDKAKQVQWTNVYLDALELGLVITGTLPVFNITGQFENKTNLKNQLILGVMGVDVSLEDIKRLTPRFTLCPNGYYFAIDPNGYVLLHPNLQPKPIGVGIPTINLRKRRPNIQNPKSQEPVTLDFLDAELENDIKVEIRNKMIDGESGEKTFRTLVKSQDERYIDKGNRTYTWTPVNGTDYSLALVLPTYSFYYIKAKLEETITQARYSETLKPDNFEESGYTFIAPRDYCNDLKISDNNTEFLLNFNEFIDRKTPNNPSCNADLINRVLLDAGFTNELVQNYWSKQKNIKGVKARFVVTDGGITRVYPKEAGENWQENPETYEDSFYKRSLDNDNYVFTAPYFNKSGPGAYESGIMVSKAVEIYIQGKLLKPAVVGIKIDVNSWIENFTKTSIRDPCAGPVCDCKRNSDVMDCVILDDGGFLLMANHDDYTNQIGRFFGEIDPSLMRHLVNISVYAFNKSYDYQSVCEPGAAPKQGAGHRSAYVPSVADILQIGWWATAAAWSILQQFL
T1 sequence (P54289 947-1103 partner limits assumed): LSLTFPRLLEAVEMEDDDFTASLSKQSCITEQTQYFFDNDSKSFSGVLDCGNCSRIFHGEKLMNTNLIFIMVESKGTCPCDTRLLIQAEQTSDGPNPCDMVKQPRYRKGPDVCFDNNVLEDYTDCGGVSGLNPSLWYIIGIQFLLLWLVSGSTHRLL

SMILES	IC50 [nM]
CC(C)C[C@H](CN)CC(=O)NCCC(C)(C)S(=O)(=O)c1cccc(C(F)(F)F)c1 [Compound 224, (S)-3-(aminomethyl)-5-methyl-N-(3-methyl-3-((3-(trifluoromethyl)phenyl)sulfonyl)butyl)hexanamide]	470
CC(C)(C(=O)NCCC(F)(F)F)S(=O)(=O)c1cccc(C(F)(F)F)c1 [Compound 125, 2-methyl-2-((3-(trifluoromethyl)phenyl)sulfonyl)-N-(3,3,3-trifluoropropyl)propanamide]	10000

same assay, conditions: Table 4; Fluo-4 FLIPR; closed or inactivated state not stated; read-out: FLIPR data CaV2.2

SMILES	IC50 [nM]
O=C(NCc1ccc(S(=O)(=O)c2cccc(C(F)(F)F)c2)cc1)C1CCCN1 (stereo in doubt) [Compound 77, (R)-N-(4-((3-(trifluoromethyl)phenyl)sulfonyl)benzyl)pyrrolidine-2-carboxamide]	690
O=C(CCC(F)(F)F)NCc1cc(S(=O)(=O)c2cccc(C(F)(F)F)c2)ccn1 [Compound 114, 4,4,4-trifluoro-N-((4-((3-(trifluoromethyl)phenyl)sulfonyl)pyridin-2-yl)methyl)butanamide]	3320
O=C(NCc1cc(S(=O)(=O)c2cccc(C(F)(F)F)c2)ccn1)c1cn2cc(C(F)(F)F)ccc2n1 [Compound 116, 6-(trifluoromethyl)-N-((4-((3-(trifluoromethyl)phenyl)sulfonyl)pyridin-2-yl)methyl)imidazo[1,2-a]pyridine-2-carboxamide]	1170
COc1cc(C(=O)NCc2ccc(S(=O)(=O)c3cccc(C(F)(F)F)c3)cn2)cc(Cl)n1 [Compound 101, 2-chloro-6-methoxy-N-((5-((3-(trifluoromethyl)phenyl)sulfonyl)pyridin-2-yl)methyl)isonicotinamide]	1460
O=C(NCc1ccccc1S(=O)(=O)c1cccc(C(F)(F)F)c1)c1ccnc(C(F)(F)F)c1 [Compound 50, 2-(trifluoromethyl)-N-(2-((3-(trifluoromethyl)phenyl)sulfonyl)benzyl)isonicotinamide]	1210
CS(=O)(=O)c1nc(C(F)(F)F)ccc1C(=O)NCc1ccc(S(=O)(=O)c2cccc(C(F)(F)F)c2)cn1 [Compound 92, 2-(methylsulfonyl)-6-(trifluoromethyl)-N-((5-((3-(trifluoromethyl)phenyl)sulfonyl)pyridin-2-yl)methyl)nicotinamide]	2330
O=C(CCC(F)(F)F)NCc1ccccc1S(=O)(=O)c1cccc(C(F)(F)F)c1 [Compound 55, 4,4,4-trifluoro-N-(2-((3-(trifluoromethyl)phenyl)sulfonyl)benzyl)butanamide]	2680
CC(C)(N)C(=O)NCc1ccc(S(=O)(=O)c2cccc(C(F)(F)F)c2)cc1 [Compound 64, 2-amino-2-methyl-N-(4-((3-(trifluoromethyl)phenyl)sulfonyl)benzyl)propanamide]	4070
O=C(NCc1cc(S(=O)(=O)c2cccc(C(F)(F)F)c2)ccn1)c1ccnn1CC(F)(F)F [Compound 112, 1-(2,2,2-trifluoroethyl)-N-((4-((3-(trifluoromethyl)phenyl)sulfonyl)pyridin-2-yl)methyl)-1H-pyrazole-5-carboxamide]	1030
CS(=O)(=O)c1nc(C(F)(F)F)ccc1C(=O)NCc1cc(S(=O)(=O)c2cccc(C(F)(F)F)c2)ccn1 [Compound 110, 2-(methylsulfonyl)-6-(trifluoromethyl)-N-((4-((3-(trifluoromethyl)phenyl)sulfonyl)pyridin-2-yl)methyl)nicotinamide]	2210

Second part, the compound after the results:

IC50 [nM]	SMILES
5540	O=C(NCc1ccccc1S(=O)(=O)c1cccc(C(F)(F)F)c1)[C@@H]1CCCN1 [Compound 76, (S)-N-(2-((3-(trifluoromethyl)phenyl)sulfonyl)benzyl)pyrrolidine-2-carboxamide]
2300	O=C(NCc1ccc(S(=O)(=O)c2cccc(C(F)(F)F)c2)cc1)[C@@H]1C[C@@H](F)CN1 [Compound 68, (2S,4R)-4-fluoro-N-(4-((3-(trifluoromethyl)phenyl)sulfonyl)benzyl)pyrrolidine-2-carboxamide]

same assay, conditions: Table 5; Fluo-4 FLIPR; closed or inactivated state not stated; read-out: FLIPR data CaV2.2

SMILES	IC50 [nM]
CC(C)(CNC(=O)c1ccc(C(F)(F)F)nc1S(C)(=O)=O)S(=O)(=O)c1cccc(C(F)(F)F)c1 [Compound 155, N-(2-methyl-2-((3-(trifluoromethyl)phenyl)sulfonyl)propyl)-2-(methylsulfonyl)-6-(trifluoromethyl)nicotinamide]	1360
CC(C)(CNC(=O)c1cnc(C(F)(F)F)nc1)S(=O)(=O)c1cccc(C(F)(F)F)c1 [Compound 164, N-(2-methyl-2-((3-(trifluoromethyl)phenyl)sulfonyl)propyl)-2-(trifluoromethyl)pyrimidine-5-carboxamide]	4660
CC(C)(CCNC(=O)c1ccc(C(F)(F)F)cc1S(C)(=O)=O)S(=O)(=O)c1cc(F)cc(C(F)(F)F)c1 [Compound 213, N-(3-((3-fluoro-5-(trifluoromethyl)phenyl)sulfonyl)-3-methylbutyl)-2-(methylsulfonyl)-4-(trifluoromethyl)benzamide]	1120
CC(C)(CNC(=O)c1ccnc(C(F)(F)F)c1)S(=O)(=O)c1cccc(C(F)(F)F)c1 [Compound 179, N-(2-methyl-2-((3-(trifluoromethyl)phenyl)sulfonyl)propyl)-2-(trifluoromethyl)isonicotinamide]	1240

Second part, the compound after the results:

IC50 [nM]	SMILES
5370	CC(C)(CNC(=O)c1ccc(F)cc1)S(=O)(=O)c1cccc(C(F)(F)F)c1 [Compound 157, 4-fluoro-N-(2-methyl-2-((3-(trifluoromethyl)phenyl)sulfonyl)propyl)benzamide]
3310	CO[C@H]1CN[C@@H](C(=O)NCCC(C)(C)S(=O)(=O)c2cccc(C(F)(F)F)c2)C1 [Compound 199, (2R,4R)-4-methoxy-N-(3-methyl-3-((3-(trifluoromethyl)phenyl)sulfonyl)butyl)pyrrolidine-2-carboxamide]
10000	CC(C)(CCNC(=O)CC1CCNCC1)S(=O)(=O)c1cccc(C(F)(F)F)c1 [Compound 206, N-(3-methyl-3-((3-(trifluoromethyl)phenyl)sulfonyl)butyl)-2-(piperidin-4-yl)acetamide]
1100	CC(C)S(=O)(=O)c1cccnc1C(=O)NCCC(C)(C)S(=O)(=O)c1cccc(C(F)(F)F)c1 [Compound 211, 3-(isopropylsulfonyl)-N-(3-methyl-3-((3-(trifluoromethyl)phenyl)sulfonyl)butyl)picolinamide]
1220	COc1cc(CCNC(=O)CC(C)(C)S(=O)(=O)c2cccc(C(F)(F)F)c2)ccc1O [Compound 153, N-(4-hydroxy-3-methoxyphenetnyl)-3-methyl-3-((3-(trifluoromethyl)phenyl)sulfonyl)butanamide]
10200	CNC(C)(C)C(=O)NCCC(C)(C)S(=O)(=O)c1cccc(C(F)(F)F)c1 [Compound 204, 2-methyl-N-(3-methyl-3-((3-(trifluoromethyl)phenyl)sulfonyl)butyl)-2-(methylamino)propanamide]
360	CC(C)(CCNC(=O)CC1(N)CCCCC1)S(=O)(=O)c1cccc(C(F)(F)F)c1 [Compound 223, 2-(1-aminocyclohexyl)-N-(3-methyl-3-((3-(trifluoromethyl)phenyl)sulfonyl)butyl)acetamide]
1530	CC(C)(CCNC(=O)c1cc(F)ccc1S(C)(=O)=O)S(=O)(=O)c1cccc(C(F)(F)F)c1 [Compound 194, 5-fluoro-N-(3-methyl-3-((3-(trifluoromethyl)phenyl)sulfonyl)butyl)-2-(methylsulfonyl)benzamide]
10000	CC(C)(N)C(=O)NCCC(C)(C)S(=O)(=O)c1cccc(C(F)(F)F)c1 [Compound 201, 2-amino-2-methyl-N-(3-methyl-3-((3-(trifluoromethyl)phenyl)sulfonyl)butyl)propanamide]
10000	CC(C)(CNC(=O)c1ccnc(F)c1)S(=O)(=O)c1cccc(C(F)(F)F)c1 [Compound 177, 2-fluoro-N-(2-methyl-2-((3-(trifluoromethyl)phenyl)sulfonyl)propyl)isonicotinamide]
2630	CCOc1ncccc1C(=O)NCC(C)(C)S(=O)(=O)c1cccc(C(F)(F)F)c1 [Compound 162, 2-ethoxy-N-(2-methyl-2-((3-(trifluoromethyl)phenyl)sulfonyl)propyl)nicotinamide]
8930	CC(C)(CCNC(=O)[C@@H]1C[C@@H](F)CN1)S(=O)(=O)c1cccc(C(F)(F)F)c1 [Compound 216, (2S,4R)-4-fluoro-N-(3-methyl-3-((3-(trifluoromethyl)phenyl)sulfonyl)butyl)pyrrolidine-2-carboxamide]
